Data reported in PMC10836395, “Investigation of how gate residues in the main channel affect the catalytic activity of Scytalidium thermophilum catalase” (Acta Crystallographica. Section D, Structural Biology, 2024).
Substitutions are numbered along the chain they refer to. Marks after values point to notes of the source that are not given here.

Assays:
CATPO [1] = biological target: CATPO (Scytalidium thermophilum (Humicola insolens), UniProt M4GGR5); assay: Substrate-specificity analysis of the phenol oxidase activity; assay type: biochemical
CATPO E484A variant [2] = biological target: T1, CATPO E484A variant (Scytalidium thermophilum (Humicola insolens), UniProt M4GGR5, E503A); assay: as above; assay type: biochemical
T188F = biological target: T2, T188F (Mycothermus thermophilus, UniProt M4GGR5, T207F); assay: Spectrophotometric phenol oxidase assay without H2O2 at pH 7.0 and 60 °C, initial rates fitted to the Michaelis-Menten equation.; assay type: biochemical; settings: read-out: Phenol oxidase K m; n = 3
T2 construct: recombinant, pET-28-TEV-CATPO; contains heme b; Rz 0.8
T2 sequence (M4GGR5 20-717 T207F): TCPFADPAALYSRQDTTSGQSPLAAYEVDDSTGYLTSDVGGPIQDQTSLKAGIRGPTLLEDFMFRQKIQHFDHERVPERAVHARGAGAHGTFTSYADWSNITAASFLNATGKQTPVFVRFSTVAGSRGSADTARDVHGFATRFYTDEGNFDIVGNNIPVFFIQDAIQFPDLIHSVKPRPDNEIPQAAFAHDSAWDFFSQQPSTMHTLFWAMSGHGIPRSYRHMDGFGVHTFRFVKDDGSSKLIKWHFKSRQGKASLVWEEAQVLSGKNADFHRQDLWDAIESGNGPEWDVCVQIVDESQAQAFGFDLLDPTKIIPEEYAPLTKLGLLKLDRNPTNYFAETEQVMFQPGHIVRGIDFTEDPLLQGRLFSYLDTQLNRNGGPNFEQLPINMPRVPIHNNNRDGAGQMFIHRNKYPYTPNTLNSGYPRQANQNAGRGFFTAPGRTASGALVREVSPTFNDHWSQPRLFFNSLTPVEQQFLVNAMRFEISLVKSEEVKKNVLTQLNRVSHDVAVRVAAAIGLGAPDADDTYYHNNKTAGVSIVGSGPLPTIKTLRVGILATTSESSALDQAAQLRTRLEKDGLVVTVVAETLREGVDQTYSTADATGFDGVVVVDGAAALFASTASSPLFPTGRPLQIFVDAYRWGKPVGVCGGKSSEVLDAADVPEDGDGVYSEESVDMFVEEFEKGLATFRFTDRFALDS
Protocol: (§1) All inhibition assays were performed in triplicate.

T188D = biological target: T3, T188D (Mycothermus thermophilus, UniProt M4GGR5, T207D); assay: as above; assay type: biochemical; settings: read-out: Phenol oxidase K m; n = 3
T3 construct: recombinant, pET-28-TEV-CATPO; contains heme b; Rz 0.5
T3 sequence (M4GGR5 20-717 T207D): T2 sequence (M4GGR5 20-717 T207F) with F188D
Protocol: as §1

CATPO [3] = biological target: T4, CATPO (Mycothermus thermophilus, UniProt M4GGR5); assay: as above; assay type: biochemical; settings: n = 3
T4 construct: recombinant, pET-28-TEV-CATPO; contains heme d; Rz 0.8
T4 sequence (M4GGR5 20-717): T2 sequence (M4GGR5 20-717 T207F) with F188T
Protocol: as §1

CATPO T188I variant = CATPO T188I variant (Scytalidium thermophilum (Humicola insolens), UniProt M4GGR5, T207I); assay type: biochemical
CATPO T188F variant = CATPO T188F variant (Scytalidium thermophilum (Humicola insolens), UniProt M4GGR5, T207F); assay: biochemical
CATPO E484A variant [4] = biological target: T1, CATPO E484A variant; assay: biochemical
CATPO E484D variant = CATPO E484D variant (Scytalidium thermophilum (Humicola insolens), UniProt M4GGR5, E503D); assay type: biochemical
CATPO T188D variant = CATPO T188D variant (Scytalidium thermophilum (Humicola insolens), UniProt M4GGR5, T207D); assay: biochemical
Sequence of CATPO T188D variant (M4GGR5 entry or part of it T207D): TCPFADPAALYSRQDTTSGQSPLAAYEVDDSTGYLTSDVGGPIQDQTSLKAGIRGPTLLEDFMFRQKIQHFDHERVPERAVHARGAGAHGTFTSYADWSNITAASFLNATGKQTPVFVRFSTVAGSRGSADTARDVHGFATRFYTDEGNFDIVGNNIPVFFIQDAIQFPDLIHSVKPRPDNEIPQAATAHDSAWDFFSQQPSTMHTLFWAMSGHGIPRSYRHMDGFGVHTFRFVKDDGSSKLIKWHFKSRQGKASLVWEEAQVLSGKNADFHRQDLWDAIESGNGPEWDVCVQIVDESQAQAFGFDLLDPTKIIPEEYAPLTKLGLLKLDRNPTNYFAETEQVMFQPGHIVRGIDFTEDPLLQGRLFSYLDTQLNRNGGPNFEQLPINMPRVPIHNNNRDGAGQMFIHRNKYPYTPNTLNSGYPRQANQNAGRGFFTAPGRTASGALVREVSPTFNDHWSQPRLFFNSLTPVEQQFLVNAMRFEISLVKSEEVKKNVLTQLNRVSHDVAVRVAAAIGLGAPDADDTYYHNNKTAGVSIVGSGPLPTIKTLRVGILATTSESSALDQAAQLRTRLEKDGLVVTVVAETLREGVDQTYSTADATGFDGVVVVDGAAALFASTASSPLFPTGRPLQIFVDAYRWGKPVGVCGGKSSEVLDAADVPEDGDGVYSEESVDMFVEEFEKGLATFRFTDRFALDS

T1 sequence (M4GGR5 entry or part of it E503A): as the sequence (M4GGR5 entry or part of it T207D) above
Sequence of CATPO E484D variant (M4GGR5 entry or part of it E503D): as the sequence (M4GGR5 entry or part of it T207D) above
Sequence of CATPO T188I variant (M4GGR5 entry or part of it T207I): as the sequence (M4GGR5 entry or part of it T207D) above
Sequence of CATPO (Scytalidium thermophilum (Humicola insolens), UniProt M4GGR5) (M4GGR5 entry or part of it): as the sequence (M4GGR5 entry or part of it T207D) above
Sequence of CATPO T188F variant (M4GGR5 entry or part of it T207F): as the sequence (M4GGR5 entry or part of it T207D) above

## Oc1cccc(O)c1O [Pyrogallol, pyrogallol]
CATPO [1]
  V max: 18450 ± 451 mM/min
  k cat/K m: 960 ± 65 s^−1 M^−1 (×10^2)
CATPO E484A variant [2]
  V max: 50000 ± 156 mM/min
  k cat/K m: 6000 ± 50 s^−1 M^−1 (×10^2)
CATPO E484A variant [2]; pH 7.0 (ABTS pH 5.0), 60°C
  K m: 36 ± 0.7 mM
T188F
  K m: 37 ± 0.5 mM
T188D
  K m: 41 ± 1 mM
CATPO [3]
  K m: 40 ± 1.8 mM
CATPO T188I variant
  V max: 27400 ± 310 mM/min
  k cat/K m: 3470 ± 256 s^−1 M^−1 (×10^2)
CATPO T188I variant; pH 7.0 (ABTS pH 5.0), 60°C
  K m: 38 ± 0.5 mM
CATPO T188F variant
  Ki: 64 ± 6 mM
CATPO E484A variant [4]
  Ki: 71 ± 4 mM
CATPO E484D variant
  V max: 16800 ± 300 mM/min
  k cat/K m: 600 ± 50 s^−1 M^−1 (×10^2)
CATPO E484D variant; pH 7.0 (ABTS pH 5.0), 60°C
  K m: 40 ± 0.5 mM
CATPO T188D variant
  Ki: 55 ± 5.5 mM
